What was measured:
Test in all cases: Indoor herbicide activity determination, Seed Treatment; pre-emergence (soil spray)
Assay type in all cases: in vivo
[1] = system: Aegilops tauschii; details: read-out: Herbicidal activities (inhibition rate) Aegilops tauschii; for inhibition at 60 g/ha: 60 g a.i./ha; for inhibition at 120 g/ha: 120 g a.i./ha
Outline: (§1)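 Pre-emergence soil spray; sandy soil pH 6.1, OM 1%, 7 cm pots; seeds covered, wetted from below, 24 h incubation under light at constant temperature; spray tower, 300 mm height, 390 mL/min nozzle flow; readout = % fresh-weight inhibition vs control at 21 d.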

[2] = system: Alopecurus japonicus
Outline: as §1

[3] = system: Leptochloa chinensis
Outline: as §1

[4] = system: Lolium multiflorum
Outline: as §1

[5] = system: Digitaria sanguinalis; details: read-out: Herbicidal activities (inhibition rate) Digitaria sanguinalis; for inhibition at 60 g/ha: 60 g a.i./ha; for inhibition at 120 g/ha: 120 g a.i./ha
Outline: as §1

[6] = system: Cyperus iria; details: read-out: Herbicidal activities (inhibition rate) Cyperus iria; for inhibition at 60 g/ha: 60 g a.i./ha; for inhibition at 120 g/ha: 120 g a.i./ha
Outline: as §1

[7] = system: Eleusine indica
Outline: as §1

[8] = system: Eclipta prostrata; details: read-out: Herbicidal activities (inhibition rate) Eclipta prostrata; for inhibition at 60 g/ha: 60 g a.i./ha; for inhibition at 120 g/ha: 120 g a.i./ha
Outline: as §1

[9] = system: Alopecurus myosuroides
Outline: as §1

Structure (SMILES)	inhibition at 60 g/ha [1] [%]	Herbicidal activity (inhibition rate class), Alopecurus japonicus ([2]; Dosage 120 g a.i./ha)	Herbicidal activity (inhibition rate class), Leptochloa chinensis ([3]; Dosage 120 g a.i./ha)	Herbicidal activity (inhibition rate class), Lolium multiflorum ([4]; Dosage 120 g a.i./ha)	inhibition at 60 g/ha [5] [%]	inhibition at 60 g/ha [6] [%]	Herbicidal activity (inhibition rate class), Eleusine indica ([7]; Dosage 120 g a.i./ha)	inhibition at 60 g/ha [8] [%]	Herbicidal activity (inhibition rate class), Alopecurus myosuroides ([9]; Dosage 120 g a.i./ha)	inhibition at 120 g/ha [1] [%]	Herbicidal activity (inhibition rate class), Alopecurus japonicus ([2]; Dosage 240 g a.i./ha)	Herbicidal activity (inhibition rate class), Leptochloa chinensis ([3]; Dosage 240 g a.i./ha)	Herbicidal activity (inhibition rate class), Lolium multiflorum ([4]; Dosage 240 g a.i./ha)	inhibition at 120 g/ha [5] [%]	inhibition at 120 g/ha [6] [%]	Herbicidal activity (inhibition rate class), Eleusine indica ([7]; Dosage 240 g a.i./ha)	inhibition at 120 g/ha [8] [%]	Herbicidal activity (inhibition rate class), Alopecurus myosuroides ([9]; Dosage 240 g a.i./ha)	Herbicidal activities, Alopecurus japonicus (inhibition rate class) ([2]; Dosage 240 g a.i./ha)	Herbicidal activities, Leptochloa chinensis (inhibition rate class) ([3]; Dosage 240 g a.i./ha)	further results
C=C[C@]1(C(=O)N[C@H]2C=C[C@@H](C(=O)OC(C)C)C2)CC(c2cc(F)cc(OC(F)(F)F)c2)=NO1 [I-463]	60 to 80	A (A indicates that the inhibition rate was greater than or equal to 80% to 100%)	A (A indicates that the inhibition rate was greater than or equal to 80% to 100%)	A (A indicates that the inhibition rate was greater than or equal to 80% to 100%)	60 to 80	60 to 80	A (A indicates that the inhibition rate was greater than or equal to 80% to 100%)	60 to 80	A (A indicates that the inhibition rate was greater than or equal to 80% to 100%)	–	–	–	–	–	–	–	–	–	–	–	–
O=C(O)[C@@H]1C=C[C@H](NC(=O)[C@@]2(C(F)(F)F)CC(c3cc(F)cc(C(F)(F)F)c3)=NO2)C1 [I-516]	80 to 100	A (A indicates that the inhibition rate was greater than or equal to 80% to 100%)	A (A indicates that the inhibition rate was greater than or equal to 80% to 100%)	A (A indicates that the inhibition rate was greater than or equal to 80% to 100%)	80 to 100	80 to 100	A (A indicates that the inhibition rate was greater than or equal to 80% to 100%)	60 to 80	A (A indicates that the inhibition rate was greater than or equal to 80% to 100%)	–	–	–	–	–	–	–	–	–	–	–	–
COC(=O)[C@@H]1C=C[C@H](NC(=O)C2(C)CC(c3cc(Cl)cc(OC(F)(F)F)c3)=NO2)C1 (stereo partly drawn) [I-486]	–	–	–	–	–	–	–	–	–	80 to 100	A (A indicates that the inhibition rate was greater than or equal to 80% to 100%)	A (A indicates that the inhibition rate was greater than or equal to 80% to 100%)	A (A indicates that the inhibition rate was greater than or equal to 80% to 100%)	60 to 80	80 to 100	A (A indicates that the inhibition rate was greater than or equal to 80% to 100%)	80 to 100	A (A indicates that the inhibition rate was greater than or equal to 80% to 100%)	–	–	–
CC1(C(=O)N[C@H]2C=C[C@@H](C(=O)O)C2)CC(c2cc(F)cc(OC(F)(F)F)c2)=NO1 (stereo partly drawn) [I-488]	–	–	–	–	–	–	–	–	–	80 to 100	A (A indicates that the inhibition rate was greater than or equal to 80% to 100%)	A (A indicates that the inhibition rate was greater than or equal to 80% to 100%)	A (A indicates that the inhibition rate was greater than or equal to 80% to 100%)	60 to 80	80 to 100	A (A indicates that the inhibition rate was greater than or equal to 80% to 100%)	80 to 100	A (A indicates that the inhibition rate was greater than or equal to 80% to 100%)	–	–	–
C=CC1(C(=O)N[C@H]2CO[C@@H](C(=O)OC)C2)CC(c2cc(F)cc(C(F)(F)F)c2)=NO1 (mixture of isomers) [I-368]	–	–	–	–	–	–	–	–	–	80 to 100	–	–	–	60 to 80	60 to 80	–	40 to 60	–	A (A indicates that the inhibition rate was greater than or equal to 80% to 100%)	A (A indicates that the inhibition rate was greater than or equal to 80% to 100%)	Herbicidal activities, Lolium multiflorum (inhibition rate class) ([4]; Dosage 240 g a.i./ha): A (A indicates that the inhibition rate was greater than or equal to 80% to 100%); Herbicidal activities, Eleusine indica (inhibition rate class) ([7]; Dosage 240 g a.i./ha): A (A indicates that the inhibition rate was greater than or equal to 80% to 100%); Herbicidal activities, Alopecurus myosuroides (inhibition rate class) ([9]; Dosage 240 g a.i./ha): A (A indicates that the inhibition rate was greater than or equal to 80% to 100%)
C=CC1(C(=O)N[C@H]2CO[C@@H](C(=O)OC)C2)CC(c2cc(F)cc(OC(F)F)c2)=NO1 (mixture of isomers) [I-370]	–	–	–	–	–	–	–	–	–	80 to 100	–	–	–	60 to 80	80 to 100	–	60 to 80	–	A (A indicates that the inhibition rate was greater than or equal to 80% to 100%)	A (A indicates that the inhibition rate was greater than or equal to 80% to 100%)	Herbicidal activities, Lolium multiflorum (inhibition rate class) ([4]; Dosage 240 g a.i./ha): A (A indicates that the inhibition rate was greater than or equal to 80% to 100%); Herbicidal activities, Eleusine indica (inhibition rate class) ([7]; Dosage 240 g a.i./ha): A (A indicates that the inhibition rate was greater than or equal to 80% to 100%); Herbicidal activities, Alopecurus myosuroides (inhibition rate class) ([9]; Dosage 240 g a.i./ha): A (A indicates that the inhibition rate was greater than or equal to 80% to 100%)

Source: patent EP4722201A1, “3-PHENYLISOXAZOLINE-5-CARBOXAMIDE COMPOUND, AND PREPARATION METHOD THEREFOR, HERBICIDAL COMPOSITION THEREOF AND USE THEREOF” (Jiangsu Flag Chemical Industry Co., Ltd, priority 2023, dated 2024)
